Source: article PMC4713719 (European Journal of Clinical Pharmacology, 2015)
Like-named read-outs stand apart in the source and are kept apart here.

What was measured:
[1] = system: patients with relapsed and refractory multiple myeloma; assay: Grade 3 or 4 adverse events and MTD in the B2207 trial; format: in vivo, human
Excerpt: The two combination studies, B2207 and PANORAMA-1, reported efficacy data in patients with relapsed and refractory multiple myeloma. In the current analysis, exposure–efficacy relationship was explored using the efficacy data (ORR based on IMWG criteria) from the B2207 trial.

[2] = system: patients with multiple myeloma; conditions: cited from earlier work
patients = system: patients; set-up: method as in historical single-agent studies; conditions: 20 mg PAN (tiw qw) single agent, pooled, N = 309, ref historical single-agent studies, cited from earlier work
[3] = system: patients with advanced hematologic malignancies; conditions: panobinostat alone; cited from earlier work
[4] = cited from earlier work
[5] = 20 mg PAN single agent (tiw qw), multiple oral dose, N = 32, cited from earlier work
CYP3A = conditions: strong CYP3A inhibitor, cancer patients; cited from earlier work
[6] = system: class I, II, and IV histone deacetylases; conditions: cited from earlier work
[7] = Panobinostat plasma PK in the PANORAMA-1 phase 3 trial (Japan subset); format: in vivo, human; conditions: PANORAMA-1 cycle 1 day 8, PAN + BTZ + Dex, N = 12
Protocol: Each phase was of 24 weeks duration with treatment phase 1 consisting of eight, 3-week cycles and treatment phase 2 consisting of four, 6-week cycles.
In this study, plasma samples for panobinostat and bortezomib were collected in a subset of Asian patients. Blood samples were taken at scheduled time points (cycle 1, day 1, and cycle 1 day 8 at pre-dose and at 0.5, 1, 2, 3, 4, 8, 24, and 48 h post-dose) for PK analysis.

[8] = cited from earlier work; remark: listed apart in the source
[9] = set-up: method as in unpublished data; conditions: 20 mg panobinostat + 25 mg lenalidomide + 40 mg dexamethasone (day 1 through day 4); ref unpublished data; cited from earlier work
[10] = patients with solid tumors; cited from earlier work
CYP2D6 = conditions: sensitive CYP2D6 substrate, cancer patients; cited from earlier work
[11] = Panobinostat plasma PK in the B2207 phase 1b trial (LC-MS/MS, non-compartmental); conditions: B2207, PAN + BTZ + Dex vs historical single-agent trials
Protocol: In the dose escalation part, PK samples were collected on cycle 1, day 8, and cycle 1, day 15 at pre-dose, and various intervals post-dose up to 48 h.

[12] = read-out: Projected Cmax; 20 mg oral dose used in the B2207 study
[13] = human, plasma, oral, geometric mean (% CV)

CC(C)C[C@H](NC(=O)[C@H](Cc1ccccc1)NC(=O)c1cnccn1)B(O)O [bortezomib]
MTD ([1]; B2207, twice-weekly (biw), in combination with panobinostat): 1.3 mg/m^2
Grade ≥3 diarrhea ([2]; 1.3 mg/m^2 IV bortezomib): 5%
Grade ≥3 diarrhea ([2]; 1.3 mg/m^2 SC bortezomib): 2%

Cc1[nH]c2ccccc2c1CCNCc1ccc(/C=C/C(=O)NO)cc1 [panobinostat, Panobinostat]
MTD ([1]; B2207, tiw, in combination with bortezomib): 20 mg
Grade 3 or 4 anemia (patients): 29 (9) %
Grade 3 or 4 diarrhea (patients): about 3%
Grade 3 or 4 fatigue (patients): 13 (4) %
Grade 3 or 4 nausea (patients): 6 (2) %
Grade 3 or 4 neutropenia (patients): 42 (14) %
Grade 3 or 4 thrombocytopenia (patients): about 21%
Grade 3 or 4 vomiting (patients): 4 (1) %
Grade 3 or 4 diarrhea (patients; listed as PAN): 10 (3) %
Grade 3 or 4 thrombocytopenia (patients; listed as PAN): 66 (21) %
Grade ≥3 thrombocytopenia [3]: 55%
Fraction of the radiolabeled dose recovered in the feces [4]: 44 to 77%
Fraction of the radiolabeled dose recovered in the urine [4]: 29 to 51%
Number of metabolites formed [4]: over 70
Unchanged panobinostat in the feces, % of the administered dose [4]: < 3.5%
Effective half-life (T1/2) ([4]; single agent, based on the rate of accumulation): approximately 16 h
Median Tmax ([4]; single agent, oral administration): about 2 h
Accumulation ([4]; single-agent trial): approximately 1.1 fold
Dose linearity of pharmacokinetics ([4]; tested dose range between 10 and 30 mg): approximately linear
Steady state reached ([4]; thrice-weekly (tiw) dosing schedule): after the third dose
AUC0-24 ([5]; geometric mean (% CV)): 139 (71) ng h/mL
Cmax ([5]; geometric mean (% CV)): 21.6 (83) ng/mL
T1/2 ([5]; geometric mean (% CV)): 16.9 (33) h
Tmax ([5]; median (range)): 1 (0.5–8) h
Increase of panobinostat systemic exposure by ketoconazole (CYP3A): 80%
Activity against histone deacetylases [6]: low nanomolar activity
AUC0-24 ([7]; geometric mean (% CV)): 95.2 (28.4) ng h/mL
Cmax [7, 13]: 15.3 ng/mL
half-life [7, 13]: 16.7 h
AUC(0-t) ([7]; human, plasma, oral, geometric mean (% CV), read-out: AUC0-24): 95 ng·h/mL
Vd/F ([7]; human, plasma, oral, geometric mean (% CV), read-out: Vz/F): 3550 L
Tmax ([7]; human, plasma, oral, median (range)): 2.02 h
Effect of fed or fasting state on oral bioavailability [8]: marginally affected
Decrease in PAN exposure compared to historical single-agent data [9]: approximately 60%
Effect of mild, moderate, or severe renal impairment on plasma exposure [10]: did not alter the plasma exposure
Increase of dextromethorphan systemic exposure by panobinostat (CYP2D6): 60%
Lower panobinostat exposure at MTD in combination vs single-agent trials [11]: ~50%

C[C@@H]1C[C@H]2[C@@H]3CCC4=CC(=O)C=C[C@]4(C)[C@@]3(F)[C@@H](O)C[C@]2(C)[C@@]1(O)C(=O)CO [dexamethasone]
Cmax [12]: ~30 nM
